For assay [1], the target named is T1, P2RY12 (Homo sapiens, UniProt Q9H244). The assay is described as follows: SPR (Biacore T200, His-captured purified P2RY12, steady-state affinity); antagonism of 2MesADP signalling in CHO-P2RY12 cells. The assay is classed as binding. On the technique in general: In SPR one partner is held on a chip, and binding of the other changes the refractive index at the surface.

Assay [2] deals with T1, P2RY12. Put plainly: biochemical.

SMILES strings stand for the structures.

T1 sequence (Q9H244 whole entry, one chain of several): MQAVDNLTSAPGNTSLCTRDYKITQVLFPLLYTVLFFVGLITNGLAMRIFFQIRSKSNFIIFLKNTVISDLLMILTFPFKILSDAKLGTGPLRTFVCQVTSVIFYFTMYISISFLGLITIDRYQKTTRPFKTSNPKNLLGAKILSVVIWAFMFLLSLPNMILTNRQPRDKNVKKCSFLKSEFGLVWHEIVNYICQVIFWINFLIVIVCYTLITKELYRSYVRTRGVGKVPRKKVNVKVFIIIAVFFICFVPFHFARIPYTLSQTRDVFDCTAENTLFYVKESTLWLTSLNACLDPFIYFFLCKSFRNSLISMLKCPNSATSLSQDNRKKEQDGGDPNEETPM

Turning to `CC(C)=CC/C=C(\C)[C@H]1CC[C@]2(C)[C@@H]1[C@H](O)C[C@@H]1[C@@]3(C)CC[C@H](O[C@@H]4O[C@H](CO)[C@@H](O)[C@H](O)[C@H]4O[C@@H]4O[C@H](CO)[C@@H](O)[C@H](O)[C@H]4O)C(C)(C)[C@@H]3CC[C@]12C` [Rg5, Ginsenoside Rg5], the Kd (usually a measure of binding affinity in units of concentration) in assay [1] stood at 330 nM.
Consider `CCCSc1nc(N[C@@H]2C[C@H]2c2ccc(F)c(F)c2)c2nnn([C@@H]3C[C@H](OCCO)[C@@H](O)[C@H]3O)c2n1` [Ticagrelor], for which binding in assay [2] was characterised by a dissociation constant (Kd) of 102 nM.
